{"source": "paper PMC5344672", "about": "(Journal of medicinal chemistry, 2016)", "key": {"DOR-1": {"target": "DOR-1 (Mus musculus, UniProt P32300)", "sequence (P32300 whole entry)": "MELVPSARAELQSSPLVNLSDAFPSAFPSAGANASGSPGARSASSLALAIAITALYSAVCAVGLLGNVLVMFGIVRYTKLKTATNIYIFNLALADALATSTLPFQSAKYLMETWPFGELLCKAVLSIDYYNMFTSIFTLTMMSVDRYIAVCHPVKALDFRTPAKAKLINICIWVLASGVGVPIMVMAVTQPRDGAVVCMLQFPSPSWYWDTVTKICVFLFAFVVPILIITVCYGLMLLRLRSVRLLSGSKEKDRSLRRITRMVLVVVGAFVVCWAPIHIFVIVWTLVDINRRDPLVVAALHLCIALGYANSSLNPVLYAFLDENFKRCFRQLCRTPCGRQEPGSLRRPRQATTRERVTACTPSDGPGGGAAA", "assay": "[35S]GTPγS functional assay, DOR-1 transfected cells", "type": "biochemical", "details": "in words"}, "MOR-1": {"target": "MOR-1 (Mus musculus, UniProt P42866)", "sequence (P42866 whole entry)": "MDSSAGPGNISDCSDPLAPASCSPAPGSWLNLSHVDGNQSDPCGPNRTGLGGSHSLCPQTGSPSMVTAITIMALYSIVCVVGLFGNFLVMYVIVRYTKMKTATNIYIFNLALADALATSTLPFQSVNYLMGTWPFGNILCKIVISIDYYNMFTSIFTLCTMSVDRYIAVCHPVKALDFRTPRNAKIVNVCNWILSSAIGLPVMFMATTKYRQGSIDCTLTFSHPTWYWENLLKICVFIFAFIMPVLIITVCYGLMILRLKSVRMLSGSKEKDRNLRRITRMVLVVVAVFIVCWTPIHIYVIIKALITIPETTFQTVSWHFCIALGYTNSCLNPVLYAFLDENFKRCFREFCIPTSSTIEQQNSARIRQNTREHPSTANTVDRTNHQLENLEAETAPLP", "assay": "[35S]GTPγS functional assay, MOR-1 transfected cells", "type": "biochemical", "details": "in words"}, "α2C adrenergic receptor": {"target": "T1, α2C adrenergic receptor (Homo sapiens, UniProt P18825)", "T1 sequence (P18825 1-462)": "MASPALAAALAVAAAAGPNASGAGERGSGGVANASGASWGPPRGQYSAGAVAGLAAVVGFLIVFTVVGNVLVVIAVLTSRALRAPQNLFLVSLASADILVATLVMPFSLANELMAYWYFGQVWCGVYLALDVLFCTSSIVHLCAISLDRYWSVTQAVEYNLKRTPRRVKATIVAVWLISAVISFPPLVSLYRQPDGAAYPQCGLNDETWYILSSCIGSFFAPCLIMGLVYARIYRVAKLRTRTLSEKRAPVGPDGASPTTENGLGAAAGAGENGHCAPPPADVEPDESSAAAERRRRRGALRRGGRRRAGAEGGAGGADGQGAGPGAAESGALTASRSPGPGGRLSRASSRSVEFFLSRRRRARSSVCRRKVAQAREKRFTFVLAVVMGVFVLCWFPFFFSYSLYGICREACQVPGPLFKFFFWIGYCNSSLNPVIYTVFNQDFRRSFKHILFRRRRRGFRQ", "assay": "PDSP screening", "type": "binding", "details": "in words (Table S1)"}, "KOR-1": {"target": "KOR-1 (Mus musculus, UniProt P33534)", "sequence (P33534 whole entry)": "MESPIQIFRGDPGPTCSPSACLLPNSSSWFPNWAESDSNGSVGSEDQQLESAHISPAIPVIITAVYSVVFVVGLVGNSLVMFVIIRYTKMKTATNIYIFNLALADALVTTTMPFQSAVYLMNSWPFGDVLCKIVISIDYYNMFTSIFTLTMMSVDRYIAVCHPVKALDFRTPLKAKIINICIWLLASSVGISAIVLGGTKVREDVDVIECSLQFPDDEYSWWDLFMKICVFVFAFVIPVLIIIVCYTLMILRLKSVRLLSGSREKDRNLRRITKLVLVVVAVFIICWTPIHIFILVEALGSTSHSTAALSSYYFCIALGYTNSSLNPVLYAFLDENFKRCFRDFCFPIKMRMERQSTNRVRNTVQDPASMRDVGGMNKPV", "type": "biochemical"}, "mice [1]": {"test_system": "mice", "assay": "Gastrointestinal transit", "type": "in vivo, mouse"}, "mice [2]": {"test_system": "mice", "assay": "Antisense oligodeoxynucleotide mapping of tail flick antinociception", "type": "in vivo, mouse", "details": "3 1.5 mg/kg sc, antisense icv days 1, 3, 5, test day 6"}, "CD1 mice": {"test_system": "CD1 mice", "assay": "Reversal of tail flick antinociception by selective antagonists", "type": "in vivo, mouse", "details": "3 1.5 mg/kg sc; β-FNA 40 mg/kg, norBNI 10 mg/kg, NTI 0.5 mg/kg, naloxone 1 mg/kg, yohimbine 10 mg/kg"}, "5HT7": {"target": "5HT7 (Homo sapiens, UniProt P34969)", "sequence (P34969 whole entry, species assumed)": "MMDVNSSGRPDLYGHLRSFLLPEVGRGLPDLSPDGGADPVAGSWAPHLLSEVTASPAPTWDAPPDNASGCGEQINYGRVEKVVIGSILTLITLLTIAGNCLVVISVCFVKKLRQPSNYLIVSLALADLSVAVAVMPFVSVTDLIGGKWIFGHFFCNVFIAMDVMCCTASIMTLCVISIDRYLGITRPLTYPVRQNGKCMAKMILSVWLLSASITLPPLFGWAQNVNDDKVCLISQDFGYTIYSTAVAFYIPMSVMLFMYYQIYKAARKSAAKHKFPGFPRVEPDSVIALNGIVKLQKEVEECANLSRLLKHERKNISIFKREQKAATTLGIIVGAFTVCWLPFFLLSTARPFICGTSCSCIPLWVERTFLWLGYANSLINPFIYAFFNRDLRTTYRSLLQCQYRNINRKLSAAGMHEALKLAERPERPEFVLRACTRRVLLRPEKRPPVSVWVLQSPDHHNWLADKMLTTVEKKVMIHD", "assay": "PDSP screening", "type": "binding", "details": "in words (Table S1)"}, "mice [3]": {"test_system": "mice", "assay": "Radiant heat tail flick antinociception", "type": "in vivo, mouse"}, "C57BL/6 mice": {"test_system": "C57BL/6 mice", "assay": "Respiratory rate", "type": "in vivo, mouse"}, "mice [4]": {"test_system": "mice", "details": "mouse, in vivo"}, "α2A adrenergic receptor": {"target": "T2, α2A adrenergic receptor (Homo sapiens, UniProt P08913)", "T2 sequence (P08913 1-465)": "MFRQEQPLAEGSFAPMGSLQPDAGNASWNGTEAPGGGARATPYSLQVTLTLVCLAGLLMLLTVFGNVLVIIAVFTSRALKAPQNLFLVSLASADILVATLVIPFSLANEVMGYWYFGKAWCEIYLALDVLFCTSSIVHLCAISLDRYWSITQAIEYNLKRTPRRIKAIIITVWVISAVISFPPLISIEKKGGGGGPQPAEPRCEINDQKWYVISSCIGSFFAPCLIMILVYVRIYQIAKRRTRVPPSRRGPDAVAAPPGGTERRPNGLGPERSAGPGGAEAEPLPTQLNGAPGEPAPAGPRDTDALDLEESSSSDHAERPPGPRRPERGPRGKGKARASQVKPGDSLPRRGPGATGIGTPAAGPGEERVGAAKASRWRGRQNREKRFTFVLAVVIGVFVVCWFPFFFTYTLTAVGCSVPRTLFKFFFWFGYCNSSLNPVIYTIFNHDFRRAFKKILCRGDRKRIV", "assay": "PDSP screening", "type": "binding", "details": "in words (Table S1)"}, "mice [5]": {"test_system": "mice", "assay": "Antinociceptive tolerance after repeated dosing", "type": "in vivo, mouse", "details": "twice daily dosing"}, "[6]": {"target": "panel of other nonopioid drug targets", "assay": "PDSP screening panel", "type": "binding", "details": "read-out: Ki at nonopioid drug targets"}, "[7]": {"details": "dose twice analgesic ED50: morphine 5 mg/kg sc, 3 1.5 mg/kg sc"}, "[8]": {"details": "higher dose: morphine 10 mg/kg, 3 3 mg/kg sc"}, "[9]": {"details": "~2× analgesic ED50: morphine 5 mg/kg sc, 3 1.2 mg/kg sc"}}, "note": "“Also recorded” adds a separate entry of the source.", "data": [{"smiles": "CC[C@@H]1CN2CC[C@]3(Nc4cccc(-c5ccoc5)c4C3=O)[C@@H]2C[C@@H]1/C(=C\\OC)C(=O)OC", "note": "[Compound 9, (E)-Methyl-2-((1′S,6′S,7′S)-6′-ethyl-4-(furan-3-yl)-3-oxo-3′,5′,6′,7′,8′,8a′-hexahydro-2′H-spiro[indoline-2,1′-indolizine]-7′-yl)-3-methoxyacrylate]", "values": [{"measurement": "functional character at DOR-1", "setting": "DOR-1", "result": "DOR-1 antagonists"}, {"measurement": "functional character at MOR-1", "setting": "MOR-1", "result": "MOR-1 agonists"}]}, {"smiles": "CC[C@@H]1CN2CC[C@]3(Nc4cccc(-c5ccccc5)c4C3=O)[C@@H]2C[C@@H]1/C(=C\\OC)C(=O)OC", "note": "[Compound 8, (E)-Methyl-2-((1′S,6′S,7′S)-6′-ethyl-3-oxo-4-phenyl-3′,5′,6′,7′,8′,8a′-hexahydro-2′H-spiro[indoline-2,1′-indolizine]-7′-yl)-3-methoxyacrylate]", "values": [{"measurement": "functional character at DOR-1", "setting": "DOR-1", "result": "dual MOR-1/DOR-1 agonist"}, {"measurement": "functional character at MOR-1", "setting": "MOR-1", "result": "dual MOR-1/DOR-1 agonist"}]}, {"smiles": "CC[C@@H]1CN2CC[C@]3(Nc4cccc(O)c4C3=O)[C@@H]2C[C@@H]1/C(=C\\OC)C(=O)OC", "note": "[Compound 4, (E)-Methyl-2-((1′S,6′S,7′S)-6′-ethyl-4-hydroxy-3-oxo-3′,5′,6′,7′,8′,8a′-hexahydro-2′H-spiro[indoline-2,1′-indolizine]-7′-yl)-3-methoxyacrylate]", "values": [{"measurement": "functional character at DOR-1", "setting": "DOR-1", "result": "DOR-1 antagonists"}, {"measurement": "functional character at MOR-1", "setting": "MOR-1", "result": "MOR-1 agonists"}]}, {"smiles": "CC[C@@H]1CN2CC[C@]3(Nc4ccccc4C3=O)[C@@H]2C[C@@H]1/C(=C\\OC)C(=O)OC", "note": "[Compound 6, (E)-Methyl-2-((1′S,6′S,7′S)-6′-ethyl-3-oxo-3′,5′,6′,7′,8′,8a′-hexahydro-2′H-spiro[indoline-2,1′-indolizin]-7′-yl)-3-methoxyacrylate]", "values": [{"measurement": "functional character at DOR-1", "setting": "DOR-1", "result": "DOR-1 antagonists"}, {"measurement": "functional character at MOR-1", "setting": "MOR-1", "result": "MOR-1 agonists"}]}, {"smiles": "CC[C@@H]1CN2CC[C@]3(Nc4cccc(C#N)c4C3=O)[C@@H]2C[C@@H]1/C(=C\\OC)C(=O)OC", "note": "[Compound 7, (E)-Methyl-2-((1′S,6′S,7′S)-4-cyano-6′-ethyl-3-oxo-3′,5′,6′,7′,8′,8a′-hexahydro-2′H-spiro[indoline-2,1′-indolizine]-7′-yl)-3-methoxyacrylate]", "values": [{"measurement": "functional character at DOR-1", "setting": "DOR-1", "result": "DOR-1 antagonists"}, {"measurement": "functional character at MOR-1", "setting": "MOR-1", "result": "MOR-1 agonists"}]}, {"smiles": "CC[C@@H]1CN2CC[C@]3(Nc4cccc(OC)c4C3=O)[C@@H]2C[C@@H]1/C(=C\\OC)C(=O)OC", "note": "[Compound 3, (E)-Methyl-2-((1′S,6′S,7′S)-6′-ethyl-4-methoxy-3-oxo-3′,5′,6′,7′,8′,8a′-hexahydro-2′H-spiro[indoline-2,1′-indolizine]-7′-yl)-3-methoxyacrylate]", "values": [{"measurement": "functional character at DOR-1", "setting": "DOR-1", "result": "antagonist"}, {"measurement": "functional character at MOR-1", "setting": "MOR-1", "result": "potent full agonist"}, {"measurement": "affinity at α2C adrenergic receptor", "setting": "α2C adrenergic receptor", "result": "poor affinity"}, {"measurement": "functional character at KOR-1", "setting": "KOR-1", "result": "antagonist"}, {"measurement": "effect on gastrointestinal transit", "setting": "mice [1]; 3 at 4 mg/kg sc", "result": "no further inhibition"}, {"measurement": "effect on gastrointestinal transit", "setting": "mice [1]; [7]", "result": "lowered gastrointestinal transit, but not nearly as much as morphine"}, {"measurement": "effect of antisense receptor downregulation on analgesic response", "setting": "mice [2]", "result": "only affected in mu receptor downregulated mice (MOR-1 AN)"}, {"measurement": "sensitivity of antinociception to antagonists", "setting": "CD1 mice", "result": "insensitive to NTI, norBNI, and yohimbine; also recorded: antagonized by β-FNA and naloxone"}, {"measurement": "affinity at 5HT7", "setting": "5HT7", "result": "poor affinity"}, {"measurement": "antinociceptive activity across mouse strains", "setting": "mice [3]; CD1, C57BL/6 and 129Sv6 mice, sc (Figure S5)", "result": "equally active"}, {"measurement": "ED50 (95% CI), intracerebroventricular", "setting": "mice [3]; CD1 mice, icv, tail flick, 15 min", "result": "0.38 (0.18- 0.81) μg"}, {"measurement": "ED50, exon 1/exon 11 double KO mice", "setting": "mice [3]; E1/E11 MOR-1 KO mice, sc, tail flick", "result": "no antinociception was observed"}, {"measurement": "decrease of respiratory rate", "setting": "C57BL/6 mice; [8]", "result": "approximately 15%"}, {"measurement": "decrease of respiratory rate", "setting": "C57BL/6 mice; [9]", "result": "no respiratory depression"}, {"measurement": "conditioned place preference or aversion", "setting": "mice [4]", "result": "neither preference or aversive behavior"}, {"measurement": "affinity at α2A adrenergic receptor", "setting": "α2A adrenergic receptor", "result": "poor affinity"}, {"measurement": "ED50 shift after 5 days", "setting": "mice [5]", "result": "< 2", "unit": "fold"}, {"measurement": "mean difference between 3 and morphine groups on day 5", "setting": "mice [5]; 95% CI 42.27 to 65.67", "result": 53.97, "unit": "%MPE"}]}, {"smiles": "CC[C@@H]1CN2CC[C@@]3(O)C(=Nc4cccc(OC)c43)[C@@H]2C[C@@H]1/C(=C\\OC)C(=O)OC", "note": "[Compound 2, (E)-Methyl-2-((2S,3S,7aS)-3-ethyl-7a-hydroxy-8-methoxy-1,2,3,4,6,7,7a,12b-octahydroindolo[2,3-a]quinolizin-2-yl)-3-methoxyacrylate]", "values": [{"measurement": "functional character at DOR-1", "setting": "DOR-1", "result": "weak KOR-1 and DOR-1 antagonist"}, {"measurement": "functional character at MOR-1", "setting": "MOR-1", "result": "partial agonist"}, {"measurement": "Ki", "setting": "[6]", "result": "> 10", "unit": "µM"}, {"measurement": "functional character at KOR-1", "setting": "KOR-1", "result": "weak KOR-1 and DOR-1 antagonist"}]}, {"smiles": "CN1CC[C@]23c4c5ccc(O)c4O[C@H]2[C@@H](O)C=C[C@H]3[C@H]1C5", "note": "[morphine, reference compound]", "values": [{"measurement": "effect on gastrointestinal transit", "setting": "mice [1]; [7]", "result": "almost totally eliminated transit"}, {"measurement": "ED50", "setting": "mice [3]; Mus musculus, sc, 0.25 h, read-out: antinociception sc, ED50 mg/kg (CI)", "result": 2.5, "unit": "mg/kg"}, {"measurement": "decrease of respiratory rate", "setting": "C57BL/6 mice; [8]", "result": "approximately 50%"}, {"measurement": "decrease of respiratory rate", "setting": "C57BL/6 mice; [9]", "result": "approximately 30%"}, {"measurement": "conditioned place preference or aversion", "setting": "mice [4]", "result": "significant conditioned place preference"}, {"measurement": "ED50 after 5 days", "setting": "mice [5]; day 5", "result": "12.1 (7.6–19.4) mg/kg"}]}]}
